Holding throughout (assay type): cell-based
Data set [1] deals with Namalwa cells. As to the kind of experiment: CellTiter-Glo cell viability, Namalwa cells. The conditions noted are these: co-dosed 1:1 with CRBN ligand 8047, Namalwa, 72 h, 10 nM-10 μM. On the procedure: CellTiter-Glo® 2.0 Cell Viability Assay (Promega) was carried out following the manufacturer's recommendations. Cells were seeded at a density of 1000 cells/well in a white 96 well plates (Corning, #3917) in a total volume of 100 μl with respective monomers, combinations of BRD ligands together with E3 ligase ligands or vehicle control treatment. After a 72 h incubation, 100 ul of the CellTiter-Glo® substrate was added per well and luminescence was read on a Spectramax M5 (Molecular Devices). Dose-response curves were generated using Graphpad Prism software.
Namalwa cells (1×10^4) were treated for 72 hours with the compounds solubilized in DMSO. Compounds were added at 10 nM-10 μM each. Cellular viability was determined using the CellTiter-Glo® Luminescent Cell Viability Assay (Promega) described above. FIG. 56 depicts the CURE-PRO-mediated loss of cellular viability for the BRD-E72 monomer (JQ1 derivatives comprising of boronic acid linkers), and the CRBN ligand, 8047 (a pomalidomide derivative comprising diol linkers) combined in a 1:1 ratio.
(In general: ATP-based viability assays read luminescence as a measure of living cells.)

Data set [2] relates to caspase 3/7. As to the kind of experiment: Caspase-Glo 3/7 assay, Namalwa cells. The conditions noted are these: 1:1 with CRBN ligand 8047, Namalwa, 24 h. The method, then: Caspase-glo® assay (Promega) was conducted following the manufacturer's recommendations. Cells were seeded at a density of 5000 cells/well in a white 96 well plates (Corning, #3917) in a total volume of 100 μl with respective monomers, combinations of BRD ligands together with E3 ligase ligands or vehicle control treatment. After a 24 h incubation, 100 μl of the […] substrate was added per well and luminescence was read on a Spectramax M5 (Molecular Devices).
Namalwa cells (5×10^4) were treated for 24 hours with the compounds solubilized in DMSO. FIG. 57 is a bar graph depiction of fold increase of apoptosis assessed via caspase 3/7 activity using the Caspase-Glo assay (Promega) described above.
Molm-13 (FIG. 76A) or Namalwa (FIG. 76B) cells (5×10^4) were treated for 24 hours with the compounds solubilized in DMSO in white 96 well plates (10 nM-10 μM solubilized in DMSO). FIG. 76 is a bar graph depiction of fold increase of apoptosis assessed via caspase 3/7 activity using the Caspase-Glo assay (Promega) described above.

Data set [3] concerns the target T1, BRD4 (Homo sapiens, UniProt O60885). The data set can be described thus: Summary of BRD4 degradation by CURE-PRO pairs, estimated from Western Blot or WES. The conditions noted are these: Table 1, aryl-boronic acid BRD4 ligand + 8047. On the set-up: endogenous in cells. The method, boiled down: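 Degradation read-out from immunoblot with ECL, or WES capillary electrophoresis with HRP detection, of RIPA lysates. Cells (Namalwa, Ramos, HeLa, MCF7, HT29 or HCT116) were exposed to DMSO-solubilized compounds for 24 h; a check mark marks 30% to 70% or higher degradation.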

For data set [4], the target named is T1, BRD4. The data set can be described thus: CURE-PRO-mediated BRD4 degradation in HeLa cells, Western blot. The conditions noted are these: 24 h. On the set-up: endogenous in cells; host or cells: HeLa. The method, boiled down: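 HeLa cells (2.5×10^6) treated 24 h with DMSO-solubilized compounds, degrader pairs combined 1:1, at 1 nM-1 μM, 1-10 μM, 10 μM or 10 and 100 μM each depending on series. RIPA lysates (10-20 μg protein) run on SDS-PAGE and immunoblotted for BRD4 with ECL detection.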
In general terms: Immunoblotting shows a protein as a band on a membrane.

Data set [5] concerns the target T1, BRD4. As to the kind of experiment: CURE-PRO-mediated BRD4 degradation in HeLa cells, WES capillary electrophoresis (ProteinSimple). On the set-up: endogenous in cells; host or cells: HeLa. The method, then:
All cell lines were purchased from ATCC or DSMZ and grown at 37° C. with 5% CO2. Human HeLa cells were cultured in complete growth medium (Dulbecco's modified Eagle's medium (DMEM) supplemented with 10% FBS); MCF7 cells were cultured in complete growth medium (Dulbecco's modified Eagle's medium (DMEM) supplemented with 10% FBS and 0.01 mg/ml human recombinant insulin (Sigma Aldrich); Namalwa and Ramos cells were cultured in complete growth medium (RPMI 1640 medium supplemented with 10% FBS); HCT116 and HT29 cells were cultured in complete growth medium (McCoy's 5a Medium supplemented with 10% FBS). For cellular degradation of BRD4 studies cells were seeded in a 12-well plate at 70-80% confluency, allowed to attach overnight, and incubated with the indicated compounds for the indicated time. When indicated, a 15-minute pretreatment with 10 μM pomalidomide, 10 μM VHL298, 10 μM Nutlin3a, 1 μM MG-132 or 1 μM Carfilzomib was performed before the addition of CURE-PROs. For washout studies, after CURE-PRO treatment, media was aspirated and incubated with complete medium for the indicated time before lysis.
WES Simple analysis was performed on WES system (ProteinSimple-Biotechne) according to the manufacturer's instructions. Total protein concentrations of cell lysates were determined by the Pierce BCA kit (Thermo Fisher). 3 μL of 0.3 μg/μL of the protein lysate was loaded onto a 12- to 230-kDa WES assay plate (ProteinSimple) where 300 nL sample was withdrawn through a capillary, subjected to electrophoretic separation of proteins by size, and followed by the simultaneous, HRP-based detection of proteins using the Anti-Rabbit Detection Module (Proteinsimple: #DM-001). The electropherograms were checked then the automatic peak detection was manually corrected if it was required.
HeLa cells (2.5×10^6) were treated for 4-24 hours with the compounds solubilized in DMSO. After 4 hours, indicated points were washed and cells were left in full growth media. Compounds were added at 10 μM each. Standardized protein samples were electrophoresed and imaged as described in the WES ProteinSimple section above. FIGS. 44 and 45 depict the time-dependence of CURE-PRO-mediated BRD4 degradation with the BRD-E52 ligand (FIG. 44) and BRD-E72 ligand (FIG. 45), both JQ1 derivatives comprising of boronic acid linkers, and the CRBN binding ligands (8046, 8047, and 8066), pomalidomide derivatives comprising diol linkers.
HeLa cells (2.5×10^6) were treated for 24 hours with the compounds solubilized in DMSO. Compounds were added at 100 nM-10 μM each. Standardized protein samples were electrophoresed and imaged as described in the WES ProteinSimple section above. FIG. 46 depicts the concentration-dependence of CURE-PRO-mediated BRD4 degradation and the requirement for monomer dimerization.

The target in data set [6] is T2, CRBN (Homo sapiens, UniProt Q96SW2).
T2 construct: endogenous in cells; host or cells: HeLa
As to the kind of experiment: CURE-PRO-mediated CRBN degradation in HeLa cells, Western blot. The conditions noted are these: 24 h. The method, then:
Namalwa, Ramosm HeLa, MCF7, or HT29 HCT116 cells (2.5-3×10^6) were treated for 24 hours with the indicated compounds solubilized in DMSO. The cells were washed in ice-cold PBS and were then lysed in RIPA lysis buffer (150 mM NaCl, 5 mM EDTA, 1% NP-40, 0.5% sodium deoxycholate, 0.1% SDS, 50 mM Tris, pH 8.0.) with Roche protease inhibitor complete cocktail and phosphatase inhibitors (10 mM sodium fluoride, 10 mM sodium pyrophosphate, 1 mM sodium orthovanadate and 20 mM β-glycerophosphate). The total protein concentrations were determined by Bradford Protein Assay (Pierce) and 10-20 μg of protein was loaded onto 4-15% Tris-Glycine gradient gels (Biorad). After standard gel electrophoresis, the separated proteins were transferred to PVDF membrane by wet transfer. The immunoblots were then blocked for 1 hour in 5% skim milk in TBST or 5% BSA in TBST, according to manufacturer's instructions, before an overnight incubation at 4° C. with indicated antibodies and membranes. […] Signal was detected with ECL Western Blotting Substrate (Pierce) and X-ray film processed with a Konica SRX-101 X-ray film processor or captured by Bio-Rad's Chemidoc Imaging system. […]

For data set [7], the system named is HCT116 cells. As to the kind of experiment: MTT toxicity of E3 ligase CURE-PRO monomers, HCT116 cells. The conditions noted are these: monomer alone, HCT116, 10 nM-30 μM, 24 h. On the procedure:
(§1) CURE-PRO ligands for the E3 ubiquitin ligases were assessed for toxicity by MTT assays as described above. CURE-PRO monomers (10 nM-30 μM) were solubilized in DMSO and added in triplicate to cells (1×10^5 cells/well) seeded in 96 well plates on the previous day. HCT116 (FIG. 105A), MCF7 (FIG. 105B), and HT29 cells (FIG. 105C) were treated with the CURE-PRO monomers for 24 h.

For data set [8], the system named is HT29 cells. The data set can be described thus: MTT toxicity of E3 ligase CURE-PRO monomers, HT29 cells. The conditions noted are these: monomer alone, HT29, 10 nM-30 μM, 24 h. The method, then:
as §1

Entries after “also recorded” stand apart in the source; their conditions may differ.

T2 sequence (Q96SW2 whole entry): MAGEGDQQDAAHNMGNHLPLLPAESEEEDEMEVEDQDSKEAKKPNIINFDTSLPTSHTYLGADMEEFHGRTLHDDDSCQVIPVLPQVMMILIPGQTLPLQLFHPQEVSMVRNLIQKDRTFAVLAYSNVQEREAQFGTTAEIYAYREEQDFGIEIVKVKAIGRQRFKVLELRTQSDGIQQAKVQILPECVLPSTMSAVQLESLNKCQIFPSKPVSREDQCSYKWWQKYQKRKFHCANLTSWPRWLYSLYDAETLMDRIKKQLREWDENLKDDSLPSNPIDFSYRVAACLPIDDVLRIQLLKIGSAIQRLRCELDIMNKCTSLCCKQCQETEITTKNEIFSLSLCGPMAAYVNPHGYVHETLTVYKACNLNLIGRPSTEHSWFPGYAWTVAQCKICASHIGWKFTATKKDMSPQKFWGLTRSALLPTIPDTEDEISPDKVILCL

As to `CCNC(=O)C[C@@H]1N=C(c2ccc(Cl)cc2)c2cc(-c3cccc(B(O)O)c3)ccc2-n2c(C)nnc21` [BRD-E72, (3-((4S)-6-(4-chlorophenyl)-4-(2-(ethylamino)-2-oxoethyl)-1-methyl-4H-benzo[f][1,2,4]triazolo[4,3-a][1,4]diazepin-8-yl)phenyl)boronic acid], in data set [1], the “loss of cellular viability versus monomer alone” value is given as “an increase in the loss of viability compared to monomer treatment alone; also recorded: marked loss in cell viability”. In data set [2], the “caspase 3/7 activation” value was “demonstrates activation of caspase 3/7; also recorded: marked caspase activation”. Besides, the “Degradation of BRD4, combination with CRBN ligand 8047” value in data set [3] is listed as “√ (A black check mark indicates efficacy of 30% to 70% or higher protein degradation)”. In addition, in data set [4] (1:1 with 8047, 10 μM, pomalidomide preincubated 15 min at equimolar concentration), the “BRD4 degradation after pomalidomide preincubation” value is “inhibition of CURE-PRO-mediated BRD4 degradation”. Further, the BRD4 degradation entry in data set [4] (BRD ligand with pomalidomide (no 8047), HeLa, 10 μM) is on record as “failed to induce BRD4 degradation”; in data set [4] (co-treated 1:1 with CRBN ligand 8047, HeLa, 10 μM each) it was “CURE-PRO-mediated degradation of BRD4”. Besides, in data set [5] (co-dosed with 8047, 10 μM each, washed after 4 h), the “sustained BRD4 degradation after drugs are washed out” value is “up to 8 h”. Besides, the “BRD4 degradation, time course” value in data set [5] (co-dosed with CRBN ligand 8047, HeLa, 10 μM each, 4-24 h) is reported as “marked BRD4 degradation after 4 h”.
Regarding `CC(C)(O)C(=O)C(=O)NCc1cccc2c1C(=O)N(C1CCC(=O)NC1=O)C2=O` (centres unmarked) [compound 8065], the “concentrations at which CRBN degradation is noted” value in data set [6] lay in the range of 10 to 100 µM.
Take `COc1ccc(C2=N[C@@H](c3ccc(Cl)cc3)[C@@H](c3ccc(Cl)cc3)N2C(=O)N2CCN(CCNC(=O)c3cccc(B(O)O)c3)C(=O)C2)c(OC(C)C)c1` [compound 8312, (3-((2-(4-((4S,5R)-4,5-bis(4-chlorophenyl)-2-(2-isopropoxy-4-methoxyphenyl)-4,5-dihydro-1H-imidazole-1-carbonyl)-2-oxopiperazin-1-yl)ethyl)carbamoyl)phenyl)boronic acid]: the “loss of viability (MTT)” value in data set [7] and in data set [8] was “loss of viability only noted at higher concentrations (30 μM); also recorded: Toxicity at higher concentrations” throughout.
